Reference: patent publication US12145947B2, “Pyrimidine based modulators and uses thereof” (Quanta Therapeutics, Inc., priority 2022, dated 2024)

How the values were obtained:
[1] = test system: AGS cells (KRAS G12D), phospho-ERK; assay: pERK In Cell Western (ICW) assay (Method B), AGS cells; assay type: cell-based; conditions: Homo sapiens, Table 4, pERK, 3 hours, read-out: ICW-AGS
Procedure: pERK ICW is a high throughput screening assay to evaluate the cellular potency of mutant KRAS small molecule inhibitors. KRAS mutant cell lines AGS and GP2D (KRAS^G12D) were purchased from ATCC and maintained respectively in RPMI and DMEM medium supplemented with 10% fetal bovine serum and Penicillin/Streptomycin.
Cells grown in exponential phase were trypsinized, resuspended in fresh media, and viable cells were counted using a cell counter with Trypan Blue (BioRad TC20). Cells were seeded into 384-well plate (Greiner 781091) at density of 5,000 cells/well for AGS and 10,000 cells/well for GP2D and allowed to grow overnight in a 37° C. CO2 incubator. The next day, compounds were dispensed into wells with a ½ log, 10-point serial dilution and top concentration of […] using Tecan D300e dispenser and incubated for 3 hours in a 37° C. CO2 incubator. Cells were then fixed with paraformaldehyde (Electron Microscopy Sciences, 15710, 4% final concentration) for 30 min, permeabilized with wash buffer (1×PBS+0.1% Triton X-100) for 30 min and blocked with Odyssey blocking buffer (Li—COR 927-70001) for 1 hour, all at room temperature (RT). Phospho-ERK antibody (CST 4370L) was diluted 1:500 in Odyssey blocking+0.2% Tween 20 and incubated with cells overnight at 4° C. The next day, plates were washed 5× with wash buffer, incubated with IRDye 800 CW, Goat anti-Rabbit secondary antibody (Li—COR 926-32211, 1:500) and DRAQ5 (CST 4084L, 1:5,000) diluted in Odyssey blocking+0.2% Tween 20 for 1 hour, washed 5×, and imaged on an Odyssey CLx imaging system.
For data analysis, signal intensities from 800 (phosphor-ERK) and 700 (DRAQ5) channels were extracted, and phospho-ERK signals were normalized to DRAQ5 signals for each well and percent of DMSO control values were computed. Data were then imported into Graphpad Prism to compute half-maximal inhibitory concentrations (IC50) using a 4-parameter variable slope model. Z-factor for each plate was computed from signals derived from wells treated with either DMSO or […] of Trametinib. AGS pERK ICW (Method B) IC50 (uM) values of selected compounds are depicted in Table 2 with compounds having a value 0.001 uM to 0.01 uM as ++++; >0.01 uM to 0.1 uM as +++; >0.1 uM to 1 uM as ++; 1 uM to 10 uM as + and >10 uM as NA.

[2] = test system: GP2D cells (KRAS G12D), phospho-ERK; assay: pERK In Cell Western (ICW) assay, GP2D cells; assay type: cell-based; conditions: Table 4, 3 hours
Outline: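 GP2D (10,000 cells/well) and AGS (5,000 cells/well) cells were treated for 3 h at 37 °C with a 10-point, ½-log dilution series (top […]). They were then fixed and immunostained for phospho-ERK. pERK signal was normalised to DRAQ5 and expressed as % of DMSO, with IC50 from a 4-parameter fit.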

Structure (SMILES)	IC50 [1] [nM]	IC50 [2] [nM]
N#Cc1cc2n(n1)CCCN(c1nc(OC[C@@]34CCCN3C[C@H](F)C4)nc(N3CC4(CCc5sc(N)c(C#N)c54)C3)c1C#N)C2 [Compound 24, 2-amino-1′-[5-cyano-6-(2-cyano-4,6,7,8-tetrahydropyrazolo[1,5-a][1,4]diazepin-5-yl)-2-[[(2R,8S)-2-fluoro-1,2,3,5,6,7-hexahydropyrrolizin-8-yl]methoxy]pyrimidin-4-yl]spiro[5,6-dihydrocyclopenta[b]thiophene-4,3′-azetidine]-3-carbonitrile]	100 to 1000	100 to 1000
N#Cc1c(N2C[C@H]3COC[C@@H](C2)N3)nc(OCC2(CN3CCOCC3)CC2)nc1N1CC2(CCc3sc(N)c(C#N)c32)C1 [Compound 42, 2-amino-1′-[5-cyano-2-[[1-(morpholinomethyl)cyclopropyl]methoxy]-6-(3-oxa-7,9-diazabicyclo[3.3.1]nonan-7-yl)pyrimidin-4-yl]spiro[5,6-dihydrocyclopenta[b]thiophene-4,3′-azetidine]-3-carbonitrile]	100 to 1000	100 to 1000
N#Cc1c(N2CCCC(C#N)CC2)nc(OC[C@@]23CCCN2C[C@H](F)C3)nc1N1CC2(CCc3sc(N)c(C#N)c32)C1 (stereo partly drawn) [Compound 33, 2-amino-1′-[5-cyano-6-(4-cyanoazepan-1-yl)-2-[[(2R,8S)-2-fluoro-1,2,3,5,6,7-hexahydropyrrolizin-8-yl]methoxy]pyrimidin-4-yl]spiro[5,6-dihydrocyclopenta[b]thiophene-4,3′-azetidine]-3-carbonitrile]	1000 to 10000	100 to 1000
N#Cc1c(N2C[C@H]3CC[C@@H](C2)N3)nc(OCC2(CN3CCOCC3)CC2)nc1N1CC2(C=CCc3sc(N)c(C#N)c32)C1 [Compound 86, 2-amino-1′-[5-cyano-2-[[1-(morpholinomethyl)cyclopropyl]methoxy]-6-[(1R,5S)-3,8-diazabicyclo[3.2.1]octan-3-yl]pyrimidin-4-yl]spiro[7H-benzothiophene-4,3′-azetidine]-3-carbonitrile]	10 to 100	1 to 10
CN(C)CC1(COc2nc(N3CCCn4nc(C(=O)N(C)C)c(Cl)c4C3)c(C#N)c(N3CC4(CCc5sc(N)c(C#N)c54)C3)n2)CC1(F)F (stereo not drawn) [Compound 87, 5-[6-(2-amino-3-cyano-spiro[5,6-dihydrocyclopenta[b]thiophene-4,3′-azetidine]-1′-yl)-5-cyano-2-[[1-[(dimethylamino)methyl]-2,2-difluoro-cyclopropyl]methoxy]pyrimidin-4-yl]-3-chloro-N,N-dimethyl-4,6,7,8-tetrahydropyrazolo[1,5-a][1,4]diazepine-2-carboxamide]	10 to 100	1 to 10
CN(C)C(=O)c1nn2c(c1Cl)CN(c1nc(OCC34CCCN3CCC4)nc(N3CC4(CCc5sc(N)c(C#N)c54)C3)c1C#N)CCC2 [Compound 18, 5-[6-(2-amino-3-cyano-spiro[5,6-dihydrocyclopenta[b]thiophene-4,3′-azetidine]-1′-yl)-5-cyano-2-(1,2,3,5,6,7-hexahydropyrrolizin-8-ylmethoxy)pyrimidin-4-yl]-3-chloro-N,N-dimethyl-4,6,7,8-tetrahydropyrazolo[1,5-a][1,4]diazepine-2-carboxamide]	100 to 1000	10 to 100
N#Cc1c(N2CCCn3nc(C(=O)C4CC4)c(Cl)c3C2)nc(OC[C@@]23CCCN2C[C@H](F)C3)nc1N1CC2(CCc3sc(N)c(C#N)c32)C1 [Compound 62, 2-amino-1′-[6-[3-chloro-2-(cyclopropanecarbonyl)-4,6,7,8-tetrahydropyrazolo[1,5-a][1,4]diazepin-5-yl]-5-cyano-2-[[(2R,8S)-2-fluoro-1,2,3,5,6,7-hexahydropyrrolizin-8-yl]methoxy]pyrimidin-4-yl]spiro[5,6-dihydrocyclopenta[b]thiophene-4,3′-azetidine]-3-carbonitrile]	10 to 100	10 to 100
CN(C)CC1(COc2nc(N3C[C@H]4CC[C@@H](C3)N4)c(C#N)c(N3CC4(CCc5sc(N)c(C#N)c54)C3)n2)COC1 [Compound 52, 2-amino-1′-[5-cyano-6-[(1R,5S)-3,8-diazabicyclo[3.2.1]octan-3-yl]-2-[[3-[(dimethylamino)methyl]oxetan-3-yl]methoxy]pyrimidin-4-yl]spiro[5,6-dihydrocyclopenta[b]thiophene-4,3′-azetidine]-3-carbonitrile]	100 to 1000	1 to 10
N#Cc1c(N2C[C@H]3CC[C@@H](C2)N3)nc(OCC2(CN3CCOCC3)CC2)nc1N1CC2(CCCCc3sc(N)c(C#N)c32)C1 [Compound 70, 2-amino-1′-[5-cyano-2-[[1-(morpholinomethyl)cyclopropyl]methoxy]-6-[(1R,5S)-3,8-diazabicyclo[3.2.1]octan-3-yl]pyrimidin-4-yl]spiro[5,6,7,8-tetrahydrocyclohepta[b]thiophene-4,3′-azetidine]-3-carbonitrile]	10 to 100	10 to 100
N#Cc1c(N)sc2c1C1(CC2)CN(c2nc(OC[C@@]34CCCN3C[C@H](F)C4)nc(N3C[C@H]4CC[C@@H](C3)N4)c2F)C1 [Compound 15, 2-amino-1′-[6-(3,8-diazabicyclo[3.2.1]octan-3-yl)-5-fluoro-2-[[(2R,8S)-2-fluoro-1,2,3,5,6,7-hexahydropyrrolizin-8-yl]methoxy]pyrimidin-4-yl]spiro[5,6-dihydrocyclopenta[b]thiophene-4,3′-azetidine]-3-carbonitrile]	10 to 100	10 to 100
Cn1c(-c2nn3c(c2Cl)CN(c2nc(OC[C@@]45CCCN4C[C@H](F)C5)nc(N4CC5(CCc6sc(N)c(C#N)c65)C4)c2C#N)CCC3)nc2c(F)cccc21 [Compound 32, 2-amino-1′-[6-[3-chloro-2-(4-fluoro-1-methyl-benzimidazol-2-yl)-4,6,7,8-tetrahydropyrazolo[1,5-a][1,4]diazepin-5-yl]-5-cyano-2-[[(2R,8S)-2-fluoro-1,2,3,5,6,7-hexahydropyrrolizin-8-yl]methoxy]pyrimidin-4-yl]spiro[5,6-dihydrocyclopenta[b]thiophene-4,3′-azetidine]-3-carbonitrile]	100 to 1000	10 to 100
CN(C)C(=O)c1cc2n(n1)CCCN(c1nc(OC[C@@]34CCCN3C[C@H](F)C4)nc(N3CC4(CCc5sc(N)c(C#N)c54)C3)c1C#N)C2 [Compound 8, 5-[6-(2-amino-3-cyano-spiro[5,6-dihydrocyclopenta[b]thiophene-4,3′-azetidine]-1′-yl)-5-cyano-2-[[(2R,8S)-2-fluoro-1,2,3,5,6,7-hexahydropyrrolizin-8-yl]methoxy]pyrimidin-4-yl]-N,N-dimethyl-4,6,7,8-tetrahydropyrazolo[1,5-a][1,4]diazepine-2-carboxamide]	10 to 100	1 to 10
CN1CCN(CC2(COc3nc(N4C[C@H]5CC[C@@H](C4)N5)c(C#N)c(N4CC5(CCc6sc(N)c(C#N)c65)C4)n3)CC2)CC1=O [Compound 80, 2-amino-1′-[5-cyano-2-[[1-[(4-methyl-3-oxo-piperazin-1-yl)methyl]cyclopropyl]methoxy]-6-[(1R,5S)-3,8-diazabicyclo[3.2.1]octan-3-yl]pyrimidin-4-yl]spiro[5,6-dihydrocyclopenta[b]thiophene-4,3′-azetidine]-3-carbonitrile]	10 to 100	1 to 10
N#Cc1c(N2C[C@H]3CC[C@@H](C2)N3)nc(OCC2(CN3CCOCC3)CC2)nc1N1CC2(CCc3sc(N)nc32)C1 [Compound 23, 4-(2-aminospiro[5,6-dihydrocyclopenta[d]thiazole-4,3′-azetidine]-1′-yl)-2-[[1-(morpholinomethyl)cyclopropyl]methoxy]-6-[(1R,5S)-3,8-diazabicyclo[3.2.1]octan-3-yl]pyrimidine-5-carbonitrile]	100 to 1000	10 to 100
CN(C)C(=O)c1nn2c(c1Cl)CN(c1nc(OCC3(CN4CCOCC4)CC3)nc(N3CC4(CCc5sc(N)c(C#N)c54)C3)c1C#N)CCC2 [Compound 5, 5-[6-(2-amino-3-cyano-spiro[5,6-dihydrocyclopenta[b]thiophene-4,3′-azetidine]-1′-yl)-5-cyano-2-[[1-(morpholinomethyl)cyclopropyl]methoxy]pyrimidin-4-yl]-3-chloro-N,N-dimethyl-4,6,7,8-tetrahydropyrazolo[1,5-a][1,4]diazepine-2-carboxamide]	10 to 100	1 to 10
